PMC4286194 (Biochemical Journal, 2015)
Read-outs that look alike come from different tables or passages of the source.

How the values were obtained:
TAO1 = target: T1, TAO1 (Homo sapiens, UniProt Q7L7X3); experiment: Kinase profiling; assay type: biochemical
T1 sequence (Q7L7X3 1-1001): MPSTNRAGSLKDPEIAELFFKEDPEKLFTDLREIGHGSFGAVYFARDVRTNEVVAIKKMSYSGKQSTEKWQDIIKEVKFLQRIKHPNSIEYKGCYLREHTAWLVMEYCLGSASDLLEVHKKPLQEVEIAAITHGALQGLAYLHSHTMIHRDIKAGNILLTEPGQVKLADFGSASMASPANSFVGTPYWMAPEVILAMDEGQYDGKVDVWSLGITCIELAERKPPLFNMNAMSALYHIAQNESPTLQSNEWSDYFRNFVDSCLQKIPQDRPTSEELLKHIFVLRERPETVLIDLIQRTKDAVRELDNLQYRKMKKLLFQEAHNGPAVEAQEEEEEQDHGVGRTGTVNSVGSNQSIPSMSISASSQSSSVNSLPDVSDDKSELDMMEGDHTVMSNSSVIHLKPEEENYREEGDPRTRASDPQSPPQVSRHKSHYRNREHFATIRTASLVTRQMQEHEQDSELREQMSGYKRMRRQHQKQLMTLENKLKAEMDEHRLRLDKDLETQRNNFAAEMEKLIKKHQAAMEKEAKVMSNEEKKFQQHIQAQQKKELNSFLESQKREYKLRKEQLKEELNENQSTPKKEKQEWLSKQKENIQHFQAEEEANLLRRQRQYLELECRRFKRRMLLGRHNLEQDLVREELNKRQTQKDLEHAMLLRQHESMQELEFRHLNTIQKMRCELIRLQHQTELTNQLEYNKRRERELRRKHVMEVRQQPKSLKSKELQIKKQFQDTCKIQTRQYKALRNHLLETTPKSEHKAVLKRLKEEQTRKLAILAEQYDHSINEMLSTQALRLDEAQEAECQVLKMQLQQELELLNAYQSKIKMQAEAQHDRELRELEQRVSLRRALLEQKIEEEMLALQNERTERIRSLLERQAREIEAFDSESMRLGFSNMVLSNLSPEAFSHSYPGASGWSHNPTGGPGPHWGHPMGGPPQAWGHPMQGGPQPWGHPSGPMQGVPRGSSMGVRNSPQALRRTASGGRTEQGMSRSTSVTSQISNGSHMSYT

PAK5 = PAK5 (Homo sapiens, UniProt Q9P286); experiment: Kinase profiling; assay type: biochemical
Sequence of PAK5 (Q9P286 whole entry): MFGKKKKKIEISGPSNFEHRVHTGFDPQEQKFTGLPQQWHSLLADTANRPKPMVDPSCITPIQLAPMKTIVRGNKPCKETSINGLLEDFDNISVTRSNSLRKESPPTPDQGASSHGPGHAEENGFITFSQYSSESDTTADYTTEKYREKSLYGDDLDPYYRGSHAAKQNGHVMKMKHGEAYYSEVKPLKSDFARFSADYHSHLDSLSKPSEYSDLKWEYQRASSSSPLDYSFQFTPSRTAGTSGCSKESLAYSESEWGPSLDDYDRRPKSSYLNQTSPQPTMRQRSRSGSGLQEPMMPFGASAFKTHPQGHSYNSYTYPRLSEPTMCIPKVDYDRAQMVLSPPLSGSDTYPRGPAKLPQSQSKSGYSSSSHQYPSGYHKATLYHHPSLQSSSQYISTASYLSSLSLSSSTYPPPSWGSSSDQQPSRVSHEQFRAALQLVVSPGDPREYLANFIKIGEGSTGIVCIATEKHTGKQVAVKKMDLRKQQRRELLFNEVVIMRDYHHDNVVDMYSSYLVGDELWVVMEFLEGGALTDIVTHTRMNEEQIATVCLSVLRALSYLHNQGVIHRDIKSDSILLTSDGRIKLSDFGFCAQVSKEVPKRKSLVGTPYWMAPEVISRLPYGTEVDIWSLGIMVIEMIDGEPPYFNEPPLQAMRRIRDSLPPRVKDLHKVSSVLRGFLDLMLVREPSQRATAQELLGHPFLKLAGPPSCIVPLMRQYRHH

MINK1 = MINK1 (Homo sapiens, UniProt Q8N4C8); experiment: Kinase profiling; assay type: biochemical
Sequence of MINK1 (Q8N4C8 whole entry): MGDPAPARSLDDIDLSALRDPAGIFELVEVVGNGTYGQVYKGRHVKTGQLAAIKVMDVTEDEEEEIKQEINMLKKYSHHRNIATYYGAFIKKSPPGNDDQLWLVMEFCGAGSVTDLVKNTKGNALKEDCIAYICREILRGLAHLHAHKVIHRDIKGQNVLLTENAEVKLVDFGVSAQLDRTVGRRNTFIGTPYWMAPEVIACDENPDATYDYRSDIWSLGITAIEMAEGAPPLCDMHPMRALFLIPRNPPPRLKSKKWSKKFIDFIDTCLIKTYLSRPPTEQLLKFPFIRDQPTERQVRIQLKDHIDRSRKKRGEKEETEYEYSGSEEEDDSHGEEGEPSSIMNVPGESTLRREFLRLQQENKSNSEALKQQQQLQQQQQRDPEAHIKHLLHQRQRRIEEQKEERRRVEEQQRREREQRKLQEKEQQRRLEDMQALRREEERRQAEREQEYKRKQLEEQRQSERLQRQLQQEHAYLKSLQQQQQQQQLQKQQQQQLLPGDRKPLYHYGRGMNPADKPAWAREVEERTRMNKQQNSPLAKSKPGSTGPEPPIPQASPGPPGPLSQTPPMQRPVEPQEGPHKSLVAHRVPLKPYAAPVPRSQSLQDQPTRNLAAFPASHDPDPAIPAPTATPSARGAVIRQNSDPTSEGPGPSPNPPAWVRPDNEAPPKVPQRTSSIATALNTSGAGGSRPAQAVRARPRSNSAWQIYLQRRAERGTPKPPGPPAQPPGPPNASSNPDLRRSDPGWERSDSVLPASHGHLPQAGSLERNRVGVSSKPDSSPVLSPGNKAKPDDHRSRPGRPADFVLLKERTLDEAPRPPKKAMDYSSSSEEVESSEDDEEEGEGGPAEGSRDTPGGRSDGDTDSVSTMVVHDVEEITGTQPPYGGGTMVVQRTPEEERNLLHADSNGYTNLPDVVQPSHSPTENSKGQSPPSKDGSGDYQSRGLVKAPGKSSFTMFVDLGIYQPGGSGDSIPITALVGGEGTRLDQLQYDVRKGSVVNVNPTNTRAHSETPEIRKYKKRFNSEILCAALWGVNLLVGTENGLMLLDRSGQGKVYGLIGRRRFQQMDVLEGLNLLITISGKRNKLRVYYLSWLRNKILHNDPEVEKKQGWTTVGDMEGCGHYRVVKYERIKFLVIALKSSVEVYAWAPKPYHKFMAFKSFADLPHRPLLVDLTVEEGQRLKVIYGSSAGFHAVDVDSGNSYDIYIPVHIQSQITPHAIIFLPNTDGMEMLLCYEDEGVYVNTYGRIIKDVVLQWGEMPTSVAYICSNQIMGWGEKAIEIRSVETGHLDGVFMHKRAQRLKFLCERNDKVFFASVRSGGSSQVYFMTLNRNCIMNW

PLK1 = PLK1 (Homo sapiens, UniProt P53350); experiment: Kinase profiling; assay type: biochemical
Sequence of PLK1 (P53350 whole entry): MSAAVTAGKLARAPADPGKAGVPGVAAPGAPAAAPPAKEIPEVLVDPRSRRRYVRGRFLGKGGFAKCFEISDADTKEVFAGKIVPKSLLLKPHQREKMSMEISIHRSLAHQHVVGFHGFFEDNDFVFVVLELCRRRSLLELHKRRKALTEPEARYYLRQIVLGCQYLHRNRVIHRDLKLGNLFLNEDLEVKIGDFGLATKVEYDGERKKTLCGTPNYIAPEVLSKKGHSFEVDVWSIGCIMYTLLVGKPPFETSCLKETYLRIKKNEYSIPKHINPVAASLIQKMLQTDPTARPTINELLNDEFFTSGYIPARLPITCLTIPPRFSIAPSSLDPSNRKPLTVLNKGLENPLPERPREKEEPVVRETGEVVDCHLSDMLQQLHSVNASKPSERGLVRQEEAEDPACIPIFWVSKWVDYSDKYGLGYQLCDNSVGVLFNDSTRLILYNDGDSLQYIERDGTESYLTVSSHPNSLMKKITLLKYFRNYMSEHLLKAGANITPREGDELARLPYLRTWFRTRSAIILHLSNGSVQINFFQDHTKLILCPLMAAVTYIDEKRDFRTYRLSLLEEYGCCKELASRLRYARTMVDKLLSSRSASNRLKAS

MPSK1 = MPSK1 (Homo sapiens, UniProt O75716); experiment: Kinase profiling; assay type: biochemical
Sequence of MPSK1 (O75716 whole entry): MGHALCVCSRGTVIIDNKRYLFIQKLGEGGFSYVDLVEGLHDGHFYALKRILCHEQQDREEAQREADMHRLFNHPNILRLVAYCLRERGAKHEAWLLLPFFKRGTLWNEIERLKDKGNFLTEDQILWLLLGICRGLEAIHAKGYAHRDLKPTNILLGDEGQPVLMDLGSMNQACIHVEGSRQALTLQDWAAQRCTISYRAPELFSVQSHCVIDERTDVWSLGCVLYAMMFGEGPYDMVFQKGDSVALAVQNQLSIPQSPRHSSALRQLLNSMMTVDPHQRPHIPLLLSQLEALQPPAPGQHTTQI

EF2K = EF2K (Homo sapiens, UniProt O00418); experiment: Kinase profiling; assay type: biochemical
[1] = tested on: Bone-marrow-derived macrophages; experiment: IL-10 mRNA (qPCR) in LPS-stimulated macrophages; assay type: cell-based; settings: Mus musculus, Macrophage, read-out: EC50 for elevation of IL-10 mRNA
Description: Primary macrophages were generated by differentiating bone marrow from 6- to 12-week-old C57BL/6 mice for 7 days in Dulbecco's modified Eagle's medium (DMEM) supplemented with 5 ng/ml recombinant M-CSF (R&D systems), 2 mM glutamine, 10% FBS, penicillin and streptomycin. Bone-marrow-derived macrophages were differentiated on non-tissue-culture-treated plastic, harvested and replated at a density of 100000 cells/cm^2 per 0.1 ml on tissue culture-treated plastic in fresh medium before stimulation on day 8. RAW264.7 cells were cultured in DMEM containing 10% FBS, 2 mM glutamine and penicillin and streptomycin. […] Cells were treated for 1 h with or without inhibitors and then stimulated for up to 24 h with either 1 μg/ml Pam3CSK4 or 100 ng/ml LPS.
mRNA was extracted from cells using the MicroElute Total RNA kit following the manufacturers’ instructions (Omega Bio-Tek). cDNA was generated from 0.5 μg of total RNA using the iScript cDNA synthesis kit and quantified by quantitative real-time PCR (qPCR) using the SsoFast EvaGreen Supermix on a CFX384 real-time system (Bio-Rad Laboratories). The relative expression of each gene was calculated from CT values using the Pfaffl method and was normalized against the mRNA levels of housekeeping genes including 18S RNA and GAPDH.

IR = IR (Homo sapiens, UniProt P06213); experiment: Kinase profiling; assay type: biochemical
Sequence of IR (P06213 28-1382): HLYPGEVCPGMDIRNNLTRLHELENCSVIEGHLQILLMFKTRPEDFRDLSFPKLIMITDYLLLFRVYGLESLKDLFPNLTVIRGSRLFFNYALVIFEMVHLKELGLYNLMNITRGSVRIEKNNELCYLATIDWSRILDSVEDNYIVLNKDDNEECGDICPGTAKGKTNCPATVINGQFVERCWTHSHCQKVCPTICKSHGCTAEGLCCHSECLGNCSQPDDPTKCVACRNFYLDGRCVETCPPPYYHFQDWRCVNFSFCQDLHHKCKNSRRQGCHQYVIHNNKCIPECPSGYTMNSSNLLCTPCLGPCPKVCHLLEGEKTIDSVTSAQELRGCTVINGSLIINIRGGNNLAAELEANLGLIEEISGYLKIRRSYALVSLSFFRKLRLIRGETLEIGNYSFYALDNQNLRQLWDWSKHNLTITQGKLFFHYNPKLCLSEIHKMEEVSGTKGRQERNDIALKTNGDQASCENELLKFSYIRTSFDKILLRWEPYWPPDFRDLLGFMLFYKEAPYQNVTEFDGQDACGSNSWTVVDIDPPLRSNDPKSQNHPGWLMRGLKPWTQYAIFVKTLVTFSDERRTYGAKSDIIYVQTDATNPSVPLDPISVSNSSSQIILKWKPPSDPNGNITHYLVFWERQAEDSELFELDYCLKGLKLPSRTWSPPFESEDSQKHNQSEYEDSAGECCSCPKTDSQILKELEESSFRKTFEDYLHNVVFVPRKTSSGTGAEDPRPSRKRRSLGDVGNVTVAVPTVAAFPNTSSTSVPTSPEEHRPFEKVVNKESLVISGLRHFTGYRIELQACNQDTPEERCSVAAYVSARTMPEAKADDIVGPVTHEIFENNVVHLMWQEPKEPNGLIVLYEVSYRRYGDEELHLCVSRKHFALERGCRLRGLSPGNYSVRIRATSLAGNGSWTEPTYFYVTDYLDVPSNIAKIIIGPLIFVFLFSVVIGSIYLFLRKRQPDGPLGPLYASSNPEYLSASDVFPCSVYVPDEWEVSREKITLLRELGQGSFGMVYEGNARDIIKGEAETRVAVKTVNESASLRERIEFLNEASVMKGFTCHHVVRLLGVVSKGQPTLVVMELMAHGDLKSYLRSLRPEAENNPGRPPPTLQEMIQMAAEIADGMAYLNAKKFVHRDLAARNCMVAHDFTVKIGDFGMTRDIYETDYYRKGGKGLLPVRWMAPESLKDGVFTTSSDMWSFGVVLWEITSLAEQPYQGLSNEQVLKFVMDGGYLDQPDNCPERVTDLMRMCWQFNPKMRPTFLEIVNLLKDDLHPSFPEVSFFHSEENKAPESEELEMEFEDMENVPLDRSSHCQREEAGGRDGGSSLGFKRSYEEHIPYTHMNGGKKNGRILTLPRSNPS

SGK1 = target: T2, SGK1 (Homo sapiens, UniProt O00141); experiment: Kinase profiling; assay type: biochemical
T2 sequence (O00141 1-431): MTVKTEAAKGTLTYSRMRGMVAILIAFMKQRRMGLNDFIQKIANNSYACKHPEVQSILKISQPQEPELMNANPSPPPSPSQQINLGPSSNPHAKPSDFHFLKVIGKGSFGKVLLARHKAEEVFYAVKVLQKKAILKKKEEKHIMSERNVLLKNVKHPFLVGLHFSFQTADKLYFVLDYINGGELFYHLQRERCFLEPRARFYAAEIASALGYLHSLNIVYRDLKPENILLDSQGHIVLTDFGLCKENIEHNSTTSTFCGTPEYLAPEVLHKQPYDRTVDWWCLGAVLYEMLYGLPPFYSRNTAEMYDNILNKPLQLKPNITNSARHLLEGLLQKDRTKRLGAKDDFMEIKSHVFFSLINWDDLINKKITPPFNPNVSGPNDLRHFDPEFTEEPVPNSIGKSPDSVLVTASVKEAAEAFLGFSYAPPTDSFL

SMILES | remaining activity at 1 µM (TAO1) | remaining activity at 0.1 µM (PAK5) | remaining activity at 1 µM (PAK5) | remaining activity at 0.1 µM (MINK1) | remaining activity at 1 µM (MINK1) | remaining activity at 0.1 µM (PLK1) | remaining activity at 1 µM (PLK1; 1 µM) | remaining activity at 0.1 µM (MPSK1) | remaining activity at 1 µM (MPSK1) | remaining activity at 0.1 µM (EF2K) | remaining activity at 1 µM (EF2K) | EC50 ([1]; drug 1 h, then LPS 1 h, qPCR, n=4) | remaining activity at 0.1 µM (IR) | remaining activity at 1 µM (IR) | remaining activity at 0.1 µM (SGK1) | remaining activity at 1 µM (SGK1) | remaining activity at 0.1 µM (TAO1; 0.1 µM) | EC50 ([1]; 1 h)
COc1cc(Nc2c(C#N)cnc3cc(OCCCN4CCN(C)CC4)c(OC)cc23)c(Cl)cc1Cl [Bosutinib, bosutinib] | 102 ± 7% | 105 ± 18% | 129 ± 5% | 5 ± 1% | 1% | 97 ± 12% | 74 ± 6% | 117 ± 15% | 110 ± 11% | 81 ± 2% | 95 ± 6% | 320 nM | 87 ± 7% | 107 ± 34% | 98 ± 20% | 100 ± 2% |  | 
Cc1nc(Nc2ncc(C(=O)Nc3c(C)cccc3Cl)s2)cc(N2CCN(CCO)CC2)n1 [Dasatinib] | 95 ± 7% | 131 ± 12% | 138 ± 7% | 90 ± 4% | 51 ± 1% | 133 ± 18% |  | 101 ± 5% | 123 ± 1% | 104 ± 4% | 95 ± 5% |  | 99 ± 2% | 94 ± 7% | 87 ± 11% | 96 ± 7% | 120 ± 9% | 100 nM
